Source: ChEMBL document CHEMBL1201862, “PubChem BioAssay data set” (2004)
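Dose response: 5 concentrations. Exposure: 48 h. Format: 96-well plates. Endpoint: linear interpolation; highest concentration if not reached. GI50 marks 50% less growth.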 Activity calls are given as the source filed them. Cut-off read from the data, not from the text of the source: active = GI50 up to about 1.1 µM and inactive = higher.

Assays:
Test in all cases: NCI-60 cell line screen, 48 h
[1] = tested on: NCI-H226
[2] = tested on: RPMI-8226
[3] = tested on: PC-3
[4] = tested on: SF-539
[5] = tested on: HCT-116
[6] = tested on: SF-268
[7] = tested on: IGROV-1
[8] = tested on: HOP-62
[9] = tested on: CAKI-1
[10] = tested on: MOLT-4
[11] = tested on: SF-295
[12] = tested on: CCRF-CEM
[13] = tested on: SW-620
[14] = tested on: HT-29
[15] = tested on: SK-MEL-5
[16] = tested on: SK-OV-3
[17] = tested on: OVCAR-5
[18] = tested on: NCI-H23
[19] = tested on: OVCAR-8
[20] = tested on: UACC-62

Measured: GI50

CC1(C)N/C(=C\C=O)C(C)(C)N1O
inactive: [1] > 100 µM | [2] > 100 µM | [3] > 100 µM | [4] > 100 µM | [5] > 100 µM | [6] > 100 µM | [7] > 100 µM | [8] > 100 µM | [9] > 100 µM | [10] > 100 µM | [11] > 100 µM | [12] > 100 µM | [13] > 100 µM | [14] > 100 µM | [15] > 100 µM | [16] > 100 µM | [17] > 100 µM | [18] > 100 µM | [19] > 100 µM | [20] > 100 µM

CC1(C)CCc2ccc(OCCC(=O)O)cc2O1
inactive: [1] > 100 µM | [2] > 100 µM | [4] > 100 µM | [5] > 100 µM | [6] > 100 µM | [7] > 100 µM | [8] > 100 µM | [9] > 100 µM | [10] > 100 µM | [11] > 100 µM | [12] > 100 µM | [13] > 100 µM | [14] > 100 µM | [15] > 100 µM | [16] > 100 µM | [17] > 100 µM | [18] > 100 µM | [19] > 100 µM | [20] > 100 µM
